Source: PMC12423892 (ACS Omega, 2025)

Legend:
HCT-116 = experiment: In vitro antiproliferative MTT assay, HCT-116; type: cell-based; settings: Homo sapiens, HCT-116, read-out: IC50 HCT-116
HepG-2 = experiment: In vitro antiproliferative MTT assay, HepG-2; type: cell-based; settings: Homo sapiens, HepG2, read-out: IC50 HepG-2
MCF-7 = experiment: In vitro antiproliferative MTT assay, MCF-7; type: cell-based; settings: Homo sapiens, MCF7, read-out: IC50 MCF-7
WI-38 = experiment: Cytotoxicity against normal WI-38 cells; type: cell-based; settings: Homo sapiens, WI-38, read-out: IC50 WI-38
HepG2 cells [1] = experiment: Cell cycle analysis, flow cytometry, HepG2; type: cell-based, human; settings: treated at IC50 (3a 4.82, 6 3.33, 15 3.31 μM), 72 h, single measurement
HepG2 cells [2] = experiment: Apoptosis analysis, Annexin V/PI, HepG2; type: cell-based, human; settings: at IC50, 72 h, single measurement

Structure (SMILES) | IC50 (HCT-116) | IC50 (HepG-2) | IC50 (MCF-7) | IC50 (WI-38) | %G0-G1 (HepG2 cells [1]) | %G2/M (HepG2 cells [1]) | %Pre-G1 (HepG2 cells [1]) | %S (HepG2 cells [1]) | apoptosis early (HepG2 cells [2]) | apoptosis late (HepG2 cells [2]) | apoptosis total (HepG2 cells [2]) | necrosis (HepG2 cells [2])
CNC(=O)c1cc(Oc2ccc(NC(=O)Nc3ccc(Cl)c(C(F)(F)F)c3)cc2)ccn1 [sorafenib] | 9.3 ± 0.2 µM | 7.4 ± 0.25 µM | 6.72 ± 0.16 µM | 35.71 ± 0.013 µM |  |  |  |  |  |  |  | 
CCN(CC)C(=S)N/N=C(\C)c1ccc(S(=O)(=O)N2CCC(C)CC2)cc1 [Compound 5, (E)-N,N-Diethyl-2-(1-(4-((4-methylpiperidin-1-yl)sulfonyl)phenyl)ethylidene)hydrazine-1-carbothioamide] | 15.1 ± 0.75 µM | 10.7 ± 0.63 µM | 18.4 ± 0.85 µM |  |  |  |  |  |  |  |  | 
C/C(=N\N)c1ccc(S(=O)(=O)N2CCC(C)CC2)cc1 [Compound 12, (E)-1-((4-(1-hydrazineylideneethyl)phenyl)sulfonyl)-4-methylpiperidine] | 87.3 ± 6.2 µM | 59.6 ± 3.3 µM | 96.1 ± 5.23 µM |  |  |  |  |  |  |  |  | 
CC[C@]1(O)C[C@@H]2CN(CCc3c([nH]c4ccccc34)[C@@](C(=O)OC)(c3cc4c(cc3OC)N(C)[C@H]3[C@@](O)(C(=O)OC)[C@H](OC(C)=O)[C@]5(CC)C=CCN6CC[C@]43[C@@H]65)C2)C1 [vinblastine] | 3.21 ± 0.21 µM | 7.35 ± 0.52 µM | 5.83 ± 0.61 µM |  |  |  |  |  |  |  |  | 
COc1cccc2c1C(=O)c1c(O)c3c(c(O)c1C2=O)C[C@@](O)(C(=O)CO)C[C@@H]3O[C@H]1C[C@H](N)[C@H](O)[C@H](C)O1 [doxorubicin] | 6.74 ± 0.4 µM | 7.52 ± 0.31 µM | 8.19 ± 0.62 µM |  | 48.26% | 21.46% | 31.28% | 30.28% | 7.43% | 21.13% | 31.28% | 2.72%
